How the values were obtained:
[1] = test system: mouse odorant receptors (ORs); experiment: CRE-luciferase assay of odorant receptor activation (Dual-Glo, Hana3A cells, RTP1S), dose-response EC50; assay type: cell-based; settings: 0 = no response; for log EC50, MOR138-1: receptor MOR138-1; for log EC50, MOR139-1: receptor MOR139-1; for log EC50, MOR189-1: receptor MOR189-1; for log EC50, MOR272-1: receptor MOR272-1; for log EC50, MOR273-1: receptor MOR273-1
[2] = test system: MOR2-1; experiment: CRE-luciferase assay of odorant receptor activation, enantiomeric pairs; assay type: cell-based, mouse; settings: CRE-luciferase in Hana3A cells; at some doses; compared with the other enantiomer; FIG. 6
From the text: OR open reading frames were amplified from genomic DNA using proofreading KOD DNA polymerase (Toyobo/Novagen) and subcloned into pCI expression vectors (Promega) containing the first 20 residues of human rhodopsin (Rho tag). The sequences of the cloned receptors were verified by sequencing (3100 Genetic Analyzer, ABI Biosystems). Immunocytochemistry and FACS analysis. […] For FACS analysis, phycoerythrin (PE)-conjugated anti-mouse IgG (Jackson Immunologicals) was used. In order to monitor the transfection efficiency, Green Fluorescent Protein (GFP) was co-transfected with the OR. The intensity of receptor cell surface expression was calculated as the ratio of PE and GFP expression. 7-aminoactinomycin D (Calbiochem) was added before flow cytometry to mark dead cells which were excluded from the analysis. The gate and mean of PE positive cells was normalized by GFP values. Luciferase assay. […] All luminescence values were divided by the Renilla Luciferase activity to control for transfection efficiency in a given well. […] Each comparison was performed in triplicate; statistical significance was assessed by t-test (uncorrected for multiple comparisons). […] For all remaining odorant pairs the Pearson correlation between EC50 vectors and the Euclidean distance between descriptor vectors was calculated. The Pearson correlation between these two sets of distances was then measured. […]

[3] = test system: MOR271-1; experiment: as above; assay type: cell-based, mouse; settings: CRE-luciferase in Hana3A cells; (+) versus (−) enantiomer; FIG. 6
From the text: (§1) Cloning mouse and human ORs. 219 mouse and 245 human odorant receptors were cloned with sequence information from The Olfactory Receptor Database (Healy et al., Chemical Senses 22, 321-6 (1997); herein incorporated by reference in its entirety). […] OR open reading frames were amplified from genomic DNA using proofreading KOD DNA polymerase (Toyobo/Novagen) and subcloned into pCI expression vectors (Promega) containing the first 20 residues of human rhodopsin (Rho tag). The sequences of the cloned receptors were verified by sequencing (3100 Genetic Analyzer, ABI Biosystems). Immunocytochemistry and FACS analysis. […] The intensity of receptor cell surface expression was calculated as the ratio of PE and GFP expression. […] Luminescence was measured using a Wallac Victor 1420 plate reader (Perkin-Elmer). All luminescence values were divided by the Renilla Luciferase activity to control for transfection efficiency in a given well. Normalized luciferase activity was calculated using the formula (LN−Lmin)/(Lmax−Lmin), where LN is the luminescence of firefly luciferase in response to the odorant, Lmin is the minimum luciferase value on a plate or set of plates, and Lmax is the maximum luciferase value on a plate or set of plates. The data was analyzed using Microsoft Excel and GraphPad Prism 4. […]

[4] = test system: MOR107-1; experiment: as above; assay type: cell-based, mouse; settings: CRE-luciferase in Hana3A cells; (+) versus (−) enantiomer; FIG. 6
From the text: as §1

[5] = target: T1, human odorant receptors (ORs) (Homo sapiens, UniProt Q8NHC4); experiment: CRE-luciferase assay of odorant receptor activation (Dual-Glo, Hana3A cells, RTP1S), dose-response EC50; assay type: cell-based; settings: receptor OR10J5; read-out: log EC50 of odorant at OR10J5 (0 = no response) (converted)
T1 construct: OR open reading frames were amplified from genomic DNA; expressed in transfected cells; host or cells: Hana3A cells, co-transfected with RTP1S, CRE-luciferase and pRL-SV40
T1 sequence (Q8NHC4 1-309): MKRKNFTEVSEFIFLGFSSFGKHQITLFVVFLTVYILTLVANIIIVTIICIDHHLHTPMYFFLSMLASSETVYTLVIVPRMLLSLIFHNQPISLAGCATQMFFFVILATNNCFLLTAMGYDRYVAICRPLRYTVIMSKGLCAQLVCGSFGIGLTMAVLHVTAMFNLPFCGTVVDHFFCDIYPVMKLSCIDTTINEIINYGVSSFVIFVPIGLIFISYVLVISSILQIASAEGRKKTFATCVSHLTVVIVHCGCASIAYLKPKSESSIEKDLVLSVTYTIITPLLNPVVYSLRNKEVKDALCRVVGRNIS
In short: (§2)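 Hana3A cells were co-transfected with Rho-tagged OR, RTP1S, CRE-luciferase and pRL-SV40, then exposed to odorant in CD293 medium for 4 hrs at 37° C. Firefly luminescence was divided by Renilla and normalized as (LN−Lmin)/(Lmax−Lmin) per plate set. Each dose was tested at least three times, and EC50 came from sigmoidal fits.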

[6] = target: T2, mouse odorant receptors (ORs) (Mus musculus, UniProt P23275); experiment: as above; assay type: cell-based; settings: receptor MOR256-17; read-out: log EC50 of odorant at MOR256-17 (0 = no response) (converted)
T2 construct: OR open reading frames were amplified from genomic DNA; expressed in transfected cells; host or cells: Hana3A cells, co-transfected with RTP1S, CRE-luciferase and pRL-SV40
T2 sequence (P23275 1-312): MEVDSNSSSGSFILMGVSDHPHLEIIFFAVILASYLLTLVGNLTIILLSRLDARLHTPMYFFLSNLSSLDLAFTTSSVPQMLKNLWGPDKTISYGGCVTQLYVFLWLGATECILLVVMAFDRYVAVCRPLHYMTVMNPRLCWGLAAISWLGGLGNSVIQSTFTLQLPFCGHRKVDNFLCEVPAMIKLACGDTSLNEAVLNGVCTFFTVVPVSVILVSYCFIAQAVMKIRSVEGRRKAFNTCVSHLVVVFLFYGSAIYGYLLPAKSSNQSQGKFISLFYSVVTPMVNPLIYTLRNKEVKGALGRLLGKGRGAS

[7] = target: T3, human odorant receptors (ORs) (Homo sapiens, UniProt Q9H255); experiment: as above; assay type: cell-based; settings: receptor OR51E2; read-out: log EC50 of odorant at OR51E2 (0 = no response) (converted)
T3 construct: OR open reading frames were amplified from genomic DNA; expressed in transfected cells; host or cells: Hana3A cells, co-transfected with RTP1S, CRE-luciferase and pRL-SV40
T3 sequence (Q9H255 1-320): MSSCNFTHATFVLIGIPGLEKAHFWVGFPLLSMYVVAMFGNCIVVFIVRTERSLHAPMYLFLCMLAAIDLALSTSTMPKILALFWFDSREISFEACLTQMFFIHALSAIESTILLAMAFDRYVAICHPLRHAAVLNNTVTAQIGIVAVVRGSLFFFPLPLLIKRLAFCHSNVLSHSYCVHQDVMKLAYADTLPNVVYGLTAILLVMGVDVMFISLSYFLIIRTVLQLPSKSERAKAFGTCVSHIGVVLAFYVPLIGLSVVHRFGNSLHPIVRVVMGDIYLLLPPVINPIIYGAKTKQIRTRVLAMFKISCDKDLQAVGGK
In short: as §2

Row | log EC50, MOR138-1 [1] | log EC50, MOR139-1 [1] | log EC50, MOR189-1 [1] | log EC50, MOR272-1 [1] | log EC50, MOR273-1 [1] | Compound | other results
1 | – | – | – | – | – | CCC(C(=O)O)c1ccccc1 (single isomer, unassigned; (+)) [(+) enantiomer of 2-phenylbutyric acid, (+)-2-Phenylbutyric acid] | log EC50, MOR2-1 ([1]; receptor MOR2-1): −3.499; response of MOR2-1 [2]: responded more strongly
2 | −4.626 | −3.773 | −4.423 | −4.35 | −4.073 | CC1(C)C(=O)[C@@]2(C)CCC1C2 (single isomer, unassigned; (+)) [(+) enantiomer of fenchone, (+)-Fenchone] | log EC50, MOR271-1 ([1]; receptor MOR271-1): −4.859; activation of MOR271-1 [3]: only activated by the (+) enantiomer
3 | −4.481 | −3.879 | −4.239 | −3.558 | −5.231 | CC1(C)C(=O)[C@]2(C)CCC1C2 (single isomer, unassigned; (-)) [(−) enantiomer of fenchone, (−)-Fenchone] | log EC50, MOR107-1 ([1]; receptor MOR107-1): −4.302; activation of MOR107-1 [4]: activated only by the (−) enantiomer
4 | – | – | – | – | – | CC(C)(O)CCCC1=CCC(C=O)CC1 (stereo not shown) [Lyral] | EC50 [5]: 324 µM; EC50 [6]: 55.6 µM
5 | – | – | – | – | – | CCC(=O)O [Propionic acid] | EC50 [7]: 109 µM

Source: patent US20100248390A1, “COMPOSITIONS AND METHODS FOR IDENTIFYING LIGANDS OF ODORANT RECEPTORS” (DUKE UNIVERSITY, priority 2009, published 2010)
